Source: PubChem BioAssay AID2305 (GlaxoSmithKline (GSK), 2010)

These molecules were tested on P. falciparum 3D7 growth, pLDH absorbance (assay: P. falciparum 3D7 growth inhibition, dose response, strain 3D7 (AID 2305)).
`COCCC[C@H]1C(=O)O[C@H]2CCC[C@@H]21` gave an IC50 of 700 nM. For `COc1ccc(CNCc2ccc(-c3cccc(-c4nc5ccc(C(F)(F)F)cc5[nH]4)c3)cc2)cc1`, the IC50 was 150 nM. For `CCNC(=O)Nc1ccc(-c2cnc(N)c(-c3nc4ccc(OC)cc4[nH]3)c2)cc1`, the IC50 was 500 nM. For `CN1CCC(NCc2cccc(-c3ccc(S(=O)(=O)NCCc4ccccn4)c(F)c3)c2)CC1`, the IC50 was 920 nM. With `CCCCCCN1CCCN(Cc2ccc(C(=O)Nc3ccc(C(C)C)cc3)cc2)CC1` the IC50 was 830 nM. With `COc1cccc2cc(C(=O)N[C@@H](CC(C)C)C(=O)N[C@H](/C=N/N3CCOC3=O)CC(C)C)oc12` the IC50 was 740 nM. Molecule `COc1ccc(CNCc2ccsc2)cc1-c1ccc(S(=O)(=O)NCCN2CCCC2)s1` has an IC50 of 770 nM. `COc1ccc2ncc(F)c(CCN3C[C@H](CNCc4ccc5c(n4)NC(=O)CS5)[C@H](O)C3)c2c1` was tested, and the IC50 was 780 nM. `Nc1nc(N)c2c(Oc3cc(Cl)c(Cl)c(Cl)c3)cccc2n1` was tested, and the IC50 was 800 nM. `CCC(CC)(Cc1ccccc1)NC(=O)[C@H](CC(C)C)Nc1ccc(C#N)c2ccccc12` showed an IC50 of 910 nM. In the case of `Nc1nc(N)c2cc(Cc3ccccc3Cl)cnc2n1`, the IC50 is reported as 110 nM. `c1ccc(C(OCCC2CCN(Cc3cccnc3)CC2)c2ccccc2)cc1` gave an IC50 of 820 nM. With `CC(=O)NC1=NC(C)(C)N(OCCCOc2ccc(Cl)c(Cl)c2)C(NC(C)=O)=N1` the IC50 was 10 nM. `COc1ccc2c(c1)CCN(CCN1CCC(CNC(=O)c3ccc(-c4ccc(C#N)cc4)cc3)CC1)C2` gave an IC50 of 620 nM. With `Cc1cccc2[nH]c(-c3ccc(-c4cccc(NC(=O)c5cnccc5C(F)(F)F)c4)cc3)nc12` the IC50 was 1000 nM. Work on `NC(N)=NN=CC(=O)Nc1ccc(Br)cc1` yielded an IC50 of 880 nM. Molecule `CN1CCC(NCc2cccc(-c3ccc(S(=O)(=O)NCCN4CCCC4)s3)c2)CC1` has an IC50 of 930 nM. For `Cc1nc(C(=O)N2CCCC[C@H]2CNC(=O)c2ccc(-c3ccc(N4CCCC4=O)cc3C)cc2)c(-c2ccc(F)cc2)s1`, the IC50 was 460 nM. Work on `Cc1ccc(NC(=O)Nc2ccc(Br)cc2)cc1OCCN(C)C` yielded an IC50 of 980 nM. With `CO/C(=C\C=C\c1cc2cc(Cl)c(Cl)cc2[nH]1)C(=O)NCCCN1CCN(c2cccc(OC)c2)CC1` the IC50 was 840 nM. Work on `NC(=O)c1ccccc1OCC(=O)Nc1ccc(-c2cccc(-c3nc4ccc(C(F)(F)F)cc4[nH]3)c2)cc1` yielded an IC50 of 980 nM. `Oc1ccc(CCNc2nc(NCCCOc3ccccc3-c3cccnc3)nc(N3CCNCC3)n2)cc1` was tested, and the IC50 was 1040 nM. For `Cc1cc(NC(=O)c2cccs2)ccc1OC1CCN(Cc2ccccc2)CC1`, the IC50 was 870 nM. For `CC1(C)N=C(N)NC(NOCC=Cc2ccccc2)=N1`, the IC50 was 230 nM. `COc1ccc2nccc([C@@H](O)CN3CCC(NC(=O)c4ccc(-c5ccccc5)s4)CC3)c2c1` gave an IC50 of 310 nM. In the case of `CS(=O)(=O)c1ccc(-c2cncc(Cl)n2)cc1`, the IC50 is reported as 770 nM. `CCOC(=O)c1ccc(-c2cnoc2-c2cc(CC)c(OC)cc2O)o1` gave an IC50 of 280 nM. `Clc1ccc(CNc2ccnc(NCc3ccc4c(c3)OCCCO4)n2)c(Cl)c1` was tested, and the IC50 was 990 nM. For `CS(=O)(=O)Nc1cccc(-c2cnc3[nH]cc(-c4ccc(C(=O)O)cc4)c3c2)c1`, the IC50 was 860 nM. Work on `O=C(Cn1c(SCc2cccc(F)c2F)cc(=O)c2ccccc21)N(CCc1cnc[nH]1)Cc1ccc(-c2ccc(C(F)(F)F)cc2)cc1` yielded an IC50 of 800 nM. In the case of `Cc1cc(N2CCCC2)nc(Nc2ccc(NC(=O)C3CCCC3)cc2)n1`, the IC50 is reported as 1110 nM. In the case of `Cc1[nH]c2ccccc2c1C1=CCN(CCN2CCOc3c(Br)cccc3C2=O)CC1`, the IC50 is reported as 800 nM. In the case of `O=C1CCCN1CCCNCc1cccc(-c2ccc(-c3nc4ccc(C(F)(F)F)cc4[nH]3)cc2)c1`, the IC50 is reported as 300 nM. In the case of `Cc1sc2nc(CSc3ccccc3)nc(N3CCN(CC(=O)N4CCCC4)CC3)c2c1C`, the IC50 is reported as 1260 nM. `CCn1cnc2c(N3CCCS3(=O)=O)cc(C(=O)N[C@@H](Cc3ccccc3)[C@H](O)CNC(C)(C)c3cccc(C(F)(F)F)c3)cc21` was tested, and the IC50 was 230 nM. Work on `CN1CCN(CCCN(Cc2ccc(-c3ccc(CNCc4ccc5c(c4)OCO5)cc3)cc2)C(=O)Nc2ccccc2)CC1` yielded an IC50 of 710 nM. Work on `CCCCCCNC(=O)C1Cc2c([nH]c3cc(Cl)ccc23)C2(CCN(Cc3ccccc3)CC2)N1` (centres undefined) yielded an IC50 of 900 nM. `O=C(Nc1ccc(-c2ccccc2)cc1)Nc1cccc(Cn2ncc(N3CCCNCC3)c(Cl)c2=O)c1` showed an IC50 of 220 nM. `CC(C)CCNC(=O)C1Cc2c([nH]c3cc(Br)ccc23)C2(CCN(Cc3ccccc3)CC2)N1` (centres undefined) was tested, and the IC50 was 790 nM. `O=C(NCCCCN1CCN(c2cccc3c2CCCC3)CC1)c1ccc(NC(=O)c2ccc(Cl)cc2)cc1` gave an IC50 of 450 nM. Molecule `CC[C@H]1CN2CCc3cc(OC)c(OC)cc3[C@@H]2C[C@@H]1C[C@H]1NCCc2cc(OC)c(OC)cc21` has an IC50 of 210 nM. `CN(CCN1CCCC1)c1nc2ccc(-n3cnc4cc(-c5ccc(Cl)cc5)sc4c3=O)cc2[nH]1` gave an IC50 of 820 nM. With `FC(F)(F)COc1c(CNCCCCCCNCc2ccc3ccccc3c2OCC(F)(F)F)ccc2ccccc12` the IC50 was 760 nM. Molecule `COc1cc(Cc2cnc(N)nc2N)ccc1OCc1ccc(-c2csnn2)cc1` has an IC50 of 630 nM. With `CCN(C(=O)NC)[C@@H]1c2cc(C#N)ccc2OC(C)(C)[C@H]1O` the IC50 was 300 nM. `CC(=O)Nc1ccc(CN2Cc3ccc(NC(=O)Nc4ccc(Oc5ccccc5)cc4)cc3C2)s1` was tested, and the IC50 was 920 nM. In the case of `Cc1cccc2[nH]c(-c3ccc(-c4ccc(NC(=O)Nc5ccsc5)cc4)s3)nc12`, the IC50 is reported as 110 nM. Molecule `CN1CCC(NCc2cccc(-c3cnc(NCc4ccccc4)nc3)c2)CC1` has an IC50 of 970 nM. For `Cc1cc(C(F)(F)F)nn1-c1ccc(NC(=O)c2ccco2)cc1`, the IC50 was 730 nM.
